# Results taken from patent US20250134866A1, “COMMENSAL SIGNALLING COMPOUNDS FOR TREATING OR PREVENTING MICROBIOME DYSFUNCTION IN THE SKIN OR MOUTH” (priority 2022, published 2025).
# Key:
# S. Aureus ATCC 6538 = assay: Growth of S. aureus culture in presence of EGT (optical density, 24 hours); assay type: cell-based; details: 0.001%, 0.05% or 0.1% (w/v) added upon inoculation, MH media, 37 C, OD monitored 24 hours
# Procedure: (§1) The growth of two bacterial strains, one commensal containing EGT-synthetic genes (P. aeruginosa ATCC 27853) and one pathogen lacking such genes (S. Aureus ATCC 6538) were compared in the presence and absence of EGT. Each strain was adjusted to an OD600 of 0.2 in MH culture media, inoculated into 96-well plates and incubated at 37 C. The growth of the cultures were monitored for optical density for 24 hours. The S. aureus and P. aeruginosa cultures reached stationary phase after 15 and 2 hours, respectively. Addition of L-ergothioneine (99+% purity) at 0.001%, 0.05% or 0.1% (w/v) upon inoculation had no effect on the growth rate of either culture.
# P. aeruginosa ATCC 27853 = assay: Growth of P. aeruginosa culture in presence of EGT (optical density, 24 hours); assay type: cell-based; details: 0.001%, 0.05% or 0.1% (w/v) added upon inoculation, MH media, 37 C, OD monitored 24 hours
# Procedure: as §1
# IL-8 = assay: Release of inflammatory cytokine IL-8 by human keratinocytes after treatment with S. aureus; assay type: cell-based; details: 24 hours pre-treatment, keratinocytes infected with S. aureus at multiplicity of infection of 10, 24 hours
# Procedure: The present example examines the release of the inflammatory cytokine IL-8 by human keratinocytes after treatment with S. aureus. Although S. aureus is associated with atopic dermatitis, IL-8 […] as inflammatory cytokine in this disease (Li and Yosipovitch, 2020).
# Infection of a keratinocyte culture at a multiplicity of infection of 10 increased the amount of IL-8 from low levels in uninfected cultures to an increase of 6,044% in 24 hours in infected cultures. Pre-treatment of the keratinocyte cultures with EGT for 24 hours reduced the release of IL-8 by 61% for 0.005% EGT, 75% for 0.01% EGT, and 82% for 0.05% EGT.
# [1] = Skin redness of atopic dermatitis lesions, topical formula, dermospectrophotometer; assay type: in vivo, human; details: placebo 9%
# Procedure: The present example tests the effect of EGT on skin inflammation in subjects with atopic dermatitis lesions.
# Three topical formulas were prepared using a commercial formulation of EGT called MC-2, which is a granulated preparation of EGT mixed into mannitol. One formulation was a placebo, with only mannitol added. The second was a low dose formula containing EGT in the form of MC-2 added to a final concentration of 0.005% EGT (w/w). The third was a high dose formulation containing EGT in the form of MC-2 added to a final concentration of 0.05% EGT (w/w).
# Subjects with patches of atopic dermatitis were recruited to the study and 16 were assigned to each of three arms: placebo, low dose EGT and high dose EGT. The subjects were 9 males and 39 females, representing each Fitzpatrick Skin Type (I-VI) in age range from 21 to 73 years old. The redness of the skin lesion was measured using a dermospectrophotometer and compared to adjacent uninvolved skin to determine a redness measure. The subjects used the test formula on the skin lesion twice a day for 4 weeks. The lesions were again measured with a dermospectrophotometer.
compound,measurement,setting,value
C[N+](C)(C)[C@@H](Cc1c[nH]c(=S)[nH]1)C(=O)[O-] [EGT],effect on the growth rate of culture,S. Aureus ATCC 6538,no effect
same,effect on the growth rate of culture,P. aeruginosa ATCC 27853,no effect
same,reduction of release of IL-8,IL-8; 0.005% EGT,61%
same,reduction of release of IL-8,IL-8; 0.01% EGT,75%
same,reduction of release of IL-8,IL-8; 0.05% EGT,82%
same,redness reduction of skin lesion,"[1]; high dose topical formula, 0.05% EGT (w/w) as MC-2, twice a day for 4 weeks",50%
same,redness reduction of skin lesion,"[1]; low dose topical formula, 0.005% EGT (w/w) as MC-2, twice a day for 4 weeks",66%
